{"source": "patent US20110207819A1", "about": "“Fat Emulsion for Artificially Feeding Seriously Ill Intensive Care Patients” (B. BRAUN MELSUNGEN AG, priority 2008, published 2011)", "origin": "cited, not measured here", "test_system": "CIP/CIM", "conditions": "intensified insulin therapy; intensive care patients"}
{"substance": "insulin", "values": [{"measurement": "decrease of the incidence of CIP/CIM", "value": 44, "unit": "%"}]}
